Reference: PubChem BioAssay AID248 (DTP/NCI, 2004)
Several values for one entry are separate records, joined by “and”; a condition that tells them apart may be missing. Equal values may be shown once. Inconclusive results and toxic doses are left out.

Test system: L1210 leukemia ip in BDF1 mice, survival T/C
Assay: NCI In Vivo Anticancer Drug Screen. Data for tumor model L1210 Leukemia (intraperitoneal) in B6D2F1 (BDF1) mice
Conditions: endpoint: mean survival time, higher = longer survival
Procedure, shortened: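 Tumor cells were implanted, animals were treated, and survival was followed. The result divides the treated measurement by the vehicle-control measurement.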

[1] = dose: 100.0 mg/kg/injection, schedule: Q01DX009 (ip), vehicle: saline
[2] = dose: 200.0 mg/kg/injection, schedule: Q01DX009 (ip), vehicle: saline
[3] = dose: 100.0 mg/kg/injection, schedule: Q04DX002 (ip), vehicle: saline with Tween-80

Structure (SMILES): Cc1cc([N+](=O)[O-])c(N/N=C/c2c[nH]c3ccccc23)c([N+](=O)[O-])c1
- T/C [1]: 102 % of control
- T/C [2]: 93 % of control
- T/C (dose: 400.0 mg/kg/injection, schedule: Q01DX009 (ip), vehicle: saline): 98 % of control

Structure (SMILES): CC(C)OP(=O)(CCCCCCCCCCP(=O)(OC(C)C)OC(C)C)OC(C)C
- T/C (dose: 100.0 mg/kg/injection, schedule: Q04DX002 (ip), vehicle: saline): 113 % of control
- T/C (dose: 200.0 mg/kg/injection, schedule: Q04DX002 (ip), vehicle: saline): 102 % of control
- T/C (dose: 400.0 mg/kg/injection, schedule: Q04DX002 (ip), vehicle: saline): 98 % of control

Structure (SMILES): c1ccc2c(CCNC3=NCCO3)c[nH]c2c1
- T/C (dose: 50.0 mg/kg/injection, schedule: Q04DX002 (ip), vehicle: saline with Tween-80): 91 % of control
- T/C [3]: 91 % of control
- T/C (dose: 100.0 mg/kg/injection, schedule: Q04DX003 (ip), vehicle: Klucel (hydroxypropylcellulose) (HPC)): 94 % of control
- T/C (dose: 200.0 mg/kg/injection, schedule: Q04DX003 (ip), vehicle: Klucel (hydroxypropylcellulose) (HPC)): 108 % of control
- T/C (dose: 400.0 mg/kg/injection, schedule: Q04DX003 (ip), vehicle: Klucel (hydroxypropylcellulose) (HPC)): 94 % of control

Structure (SMILES): O=NN(CCCl)C(=O)NC1CCSCC1
- T/C (dose: 0.5 mg/kg/injection, schedule: Q01DX001 (ip), vehicle: carboxymethylcellulose (CMC)): 104 % of control
- T/C (dose: 1.0 mg/kg/injection, schedule: Q01DX001 (ip), vehicle: carboxymethylcellulose (CMC)): 104 % of control
- T/C (dose: 4.0 mg/kg/injection, schedule: Q01DX001 (ip), vehicle: carboxymethylcellulose (CMC)): 179 % of control
- T/C (dose: 5.0 mg/kg/injection, schedule: Q01DX001 (ip), vehicle: carboxymethylcellulose (CMC)): 226 % of control
- T/C (dose: 6.0 mg/kg/injection, schedule: Q01DX001 (ip), vehicle: carboxymethylcellulose (CMC)): 203 % of control and 277 % of control
- T/C (dose: 8.0 mg/kg/injection, schedule: Q01DX001 (ip), vehicle: carboxymethylcellulose (CMC)): 290 % of control and 319 % of control and 322 % of control
- T/C (dose: 9.0 mg/kg/injection, schedule: Q01DX001 (ip), vehicle: carboxymethylcellulose (CMC)): 312 % of control
- T/C (dose: 12.0 mg/kg/injection, schedule: Q01DX001 (ip), vehicle: carboxymethylcellulose (CMC)): 319 % of control and 322 % of control
- T/C (dose: 14.0 mg/kg/injection, schedule: Q01DX001 (ip), vehicle: carboxymethylcellulose (CMC)): 312 % of control
- T/C (dose: 16.0 mg/kg/injection, schedule: Q01DX001 (ip), vehicle: carboxymethylcellulose (CMC)): 234 % of control
- T/C (dose: 18.0 mg/kg/injection, schedule: Q01DX001 (ip), vehicle: carboxymethylcellulose (CMC)): 158 % of control
- T/C (dose: 21.0 mg/kg/injection, schedule: Q01DX001 (ip), vehicle: carboxymethylcellulose (CMC)): 122 % of control
- T/C (dose: 24.0 mg/kg/injection, schedule: Q01DX001 (ip), vehicle: carboxymethylcellulose (CMC)): 90 % of control

Structure (SMILES): COc1ccc(-n2c(O)c(N=Nc3ccc(Br)cc3)c(=O)n(-c3ccccc3)c2=S)cc1
- T/C (dose: 50.0 mg/kg/injection, schedule: Q01DX001 (ip), vehicle: Klucel (hydroxypropylcellulose) (HPC)): 102 % of control
- T/C (dose: 100.0 mg/kg/injection, schedule: Q01DX001 (ip), vehicle: Klucel (hydroxypropylcellulose) (HPC)): 104 % of control
- T/C (dose: 200.0 mg/kg/injection, schedule: Q01DX001 (ip), vehicle: Klucel (hydroxypropylcellulose) (HPC)): 100 % of control

Structure (SMILES): CCCCCCCCCCCCC1C2CCCCC2CC2CCCCC21 (stereo not given)
- T/C (dose: 100.0 mg/kg/injection, schedule: Q01DX001 (ip), vehicle: saline with Tween-80): 94 % of control
- T/C (dose: 200.0 mg/kg/injection, schedule: Q01DX001 (ip), vehicle: saline with Tween-80): 94 % of control
- T/C (dose: 400.0 mg/kg/injection, schedule: Q01DX001 (ip), vehicle: saline with Tween-80): 96 % of control

Structure (SMILES): O=C1OC(=O)C2C3C=CC(C4C=CC43)C12 (stereo not given)
- T/C [1]: 93 % of control
- T/C [3]: 103 % of control
- T/C (dose: 100.0 mg/kg/injection, schedule: Q04DX003 (ip), vehicle: saline): 86 % of control
- T/C [2]: 102 % of control
- T/C (dose: 200.0 mg/kg/injection, schedule: Q04DX002 (ip), vehicle: saline with Tween-80): 100 % of control
- T/C (dose: 200.0 mg/kg/injection, schedule: Q04DX003 (ip), vehicle: saline): 93 % of control
- T/C (dose: 400.0 mg/kg/injection, schedule: Q04DX003 (ip), vehicle: saline): 100 % of control

Structure (SMILES): COc1ccc2ncc(C)c(CO)c2c1
- T/C (dose: 44.0 mg/kg/injection, schedule: Q01DX009 (ip), vehicle: Klucel (hydroxypropylcellulose) (HPC)): 96 % of control
- T/C (dose: 66.0 mg/kg/injection, schedule: Q01DX009 (ip), vehicle: Klucel (hydroxypropylcellulose) (HPC)): 98 % of control
- T/C (dose: 150.0 mg/kg/injection, schedule: Q01DX009 (ip), vehicle: Klucel (hydroxypropylcellulose) (HPC)): 101 % of control
- T/C (dose: 200.0 mg/kg/injection, schedule: Q01DX009 (ip), vehicle: Klucel (hydroxypropylcellulose) (HPC)): 102 % of control
- T/C (dose: 400.0 mg/kg/injection, schedule: Q01DX009 (ip), vehicle: Klucel (hydroxypropylcellulose) (HPC)): 102 % of control

Structure (SMILES): [N-]=[N+]=c1c(=O)c2ccccc2c1=O
- T/C (dose: 100.0 mg/kg/injection, schedule: Q01DX009 (ip), vehicle: saline with Tween-80): 103 % of control
- T/C (dose: 200.0 mg/kg/injection, schedule: Q01DX009 (ip), vehicle: saline with Tween-80): 97 % of control
- T/C (dose: 400.0 mg/kg/injection, schedule: Q01DX009 (ip), vehicle: saline with Tween-80): 96 % of control
